Several values for one entry are separate records, joined by “and”; a condition that tells them apart may be missing. Equal values may be shown once. Toxic doses and inconclusive results are not listed. Bridge positions count the residues as written; N and C are the ends. Peptide text beside a SMILES is read from it. I, II: the chains in the order shown.

This note sets out measurements from PubChem BioAssay AID248 (DTP/NCI, 2004).

The subject of the assay is L1210 leukemia ip in BDF1 mice, survival T/C. Nature of the assay: NCI In Vivo Anticancer Drug Screen. Data for tumor model L1210 Leukemia (intraperitoneal) in B6D2F1 (BDF1) mice. As to conditions: endpoint: mean survival time, higher = longer survival. Summed up: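 Transplantable tumor model; survival measured in treated vs vehicle control mice. Value = treated/control.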

The mark [1] stands for this setting: dose: 100.0 mg/kg/injection, schedule: Q01DX009 (ip), vehicle: Klucel (hydroxypropylcellulose) (HPC).
The mark [2] stands for this setting: dose: 100.0 mg/kg/injection, schedule: Q04DX003 (ip), vehicle: Klucel (hydroxypropylcellulose) (HPC).
Setting [3] is: dose: 200.0 mg/kg/injection, schedule: Q01DX009 (ip), vehicle: Klucel (hydroxypropylcellulose) (HPC).
[4] abbreviates: dose: 200.0 mg/kg/injection, schedule: Q04DX003 (ip), vehicle: Klucel (hydroxypropylcellulose) (HPC).
[5] abbreviates: dose: 400.0 mg/kg/injection, schedule: Q04DX003 (ip), vehicle: Klucel (hydroxypropylcellulose) (HPC).
Where [6] appears, read: dose: 75.0 mg/kg/injection, schedule: Q01DX001 (ip), vehicle: saline.
[7] abbreviates: dose: 150.0 mg/kg/injection, schedule: Q01DX001 (ip), vehicle: saline.
[8] abbreviates: dose: 50.0 mg/kg/injection, schedule: Q04DX003 (ip), vehicle: Klucel (hydroxypropylcellulose) (HPC).
The mark [9] stands for this setting: dose: 50.0 mg/kg/injection, schedule: Q01DX009 (ip), vehicle: Klucel (hydroxypropylcellulose) (HPC).
Setting [10] is: dose: 100.0 mg/kg/injection, schedule: Q01DX009 (ip), vehicle: saline.
Setting [11] is: dose: 25.0 mg/kg/injection, schedule: Q04DX002 (ip), vehicle: saline with Tween-80.

For `O=C(OCc1ccccc1)c1cc(OCc2ccccc2)ccc1OCc1ccccc1`, the T/C by setting is: under setting [1], 89 % of control; under setting [2], 93 % of control; under setting [3], 101 % of control; under setting [4], 95 % of control; (dose: 400.0 mg/kg/injection, schedule: Q01DX009 (ip), vehicle: Klucel (hydroxypropylcellulose) (HPC)) 107 % of control; under setting [5], 98 % of control.
For the molecule `CCC(C)(C)NC(N)=O`, the T/C is, setting by setting: (dose: 100.0 mg/kg/injection, schedule: Q04DX002 (ip), vehicle: Klucel (hydroxypropylcellulose) (HPC)) 99 % of control; (dose: 200.0 mg/kg/injection, schedule: Q04DX002 (ip), vehicle: Klucel (hydroxypropylcellulose) (HPC)) 92 % of control; (dose: 400.0 mg/kg/injection, schedule: Q04DX002 (ip), vehicle: Klucel (hydroxypropylcellulose) (HPC)) 96 % of control.
Consider `CCCCCCCCCCC/C(C)=N/Nc1ccc([N+](=O)[O-])cc1[N+](=O)[O-]`, for which the T/C is, setting by setting: (dose: 100.0 mg/kg/injection, schedule: Q01DX001 (ip), vehicle: saline with Tween-80) 94 % of control; (dose: 200.0 mg/kg/injection, schedule: Q01DX001 (ip), vehicle: saline with Tween-80) 92 % of control; (dose: 400.0 mg/kg/injection, schedule: Q01DX001 (ip), vehicle: saline with Tween-80) 92 % of control.
On to `CN1CN(c2ccccc2)C2(CCNCC2)C1=O`, for which the T/C was 102 % of control under setting [6] and 96 % of control under setting [7].
For `SCc1ccc(Cl)cc1.[Pb]`, the T/C (dose: 100.0 mg/kg/injection, schedule: Q04DX002 (ip), vehicle: gum acacia) was 88 % of control; the T/C (dose: 200.0 mg/kg/injection, schedule: Q04DX002 (ip), vehicle: gum acacia) was 98 % of control; the T/C (dose: 400.0 mg/kg/injection, schedule: Q04DX002 (ip), vehicle: gum acacia) was 109 % of control.
For the molecule `CC(=S)c1ccccc1`, the T/C runs as follows: under setting [8], 102 % of control; under setting [2], 107 % of control; under setting [4], 92 % of control; under setting [5], 97 % of control.
For the molecule `NCC(=O)NC(CSSCC(NC(=O)CN)C(=O)O)C(=O)O` (stereo not drawn) (I: H-Gly-Cys-OH / II: H-Gly-Cys-OH; disulfide I:2-II:2; configuration not given here), the T/C is 99 % of control under setting [6]; 102 % of control under setting [7]; 100 % of control (dose: 300.0 mg/kg/injection, schedule: Q01DX001 (ip), vehicle: saline).
On to `O=C(COc1ccccc1)Oc1c(Cl)c(Cl)c(Cl)c(Cl)c1Cl`, for which the T/C runs as follows: (dose: 100.0 mg/kg/injection, schedule: Q01DX001 (ip), vehicle: Klucel (hydroxypropylcellulose) (HPC)) 96 % of control; under setting [2], 103 % of control; (dose: 200.0 mg/kg/injection, schedule: Q01DX001 (ip), vehicle: Klucel (hydroxypropylcellulose) (HPC)) 92 % of control; under setting [4], 103 % of control; (dose: 400.0 mg/kg/injection, schedule: Q01DX001 (ip), vehicle: Klucel (hydroxypropylcellulose) (HPC)) 98 % of control; under setting [5], 95 % of control.
Turning to `CCCCNc1c(C(=O)OCC)c[nH]c(=O)c1C(C)=O`, the T/C is 97 % of control under setting [2], 97 % of control under setting [4] and 87 % of control under setting [5].
Take `CS(=O)(=O)OCCCCCCCCOS(C)(=O)=O`: the T/C is, setting by setting: (dose: 3.0 mg/kg/injection, schedule: Q01DX009 (ip), vehicle: Klucel (hydroxypropylcellulose) (HPC)) 100 % of control; (dose: 5.0 mg/kg/injection, schedule: Q01DX009 (ip), vehicle: Klucel (hydroxypropylcellulose) (HPC)) 102 % of control; (dose: 11.0 mg/kg/injection, schedule: Q01DX009 (ip), vehicle: Klucel (hydroxypropylcellulose) (HPC)) 118 % of control; (dose: 12.5 mg/kg/injection, schedule: Q01DX009 (ip), vehicle: Klucel (hydroxypropylcellulose) (HPC)) 108 % of control; (dose: 25.0 mg/kg/injection, schedule: Q01DX009 (ip), vehicle: Klucel (hydroxypropylcellulose) (HPC)) 114 % of control; (dose: 25.0 mg/kg/injection, schedule: Q04DX003 (ip), vehicle: Klucel (hydroxypropylcellulose) (HPC)) 112 % of control. The T/C was 163 % of control (dose: 37.5 mg/kg/injection, schedule: Q01DX009 (ip), vehicle: Klucel (hydroxypropylcellulose) (HPC)); 93 % of control under setting [9]; 116 % of control under setting [8]; 116 % of control under setting [2].
`Clc1ccc(Cl)c2c(Br)cncc12`: the T/C reads like this: (dose: 100.0 mg/kg/injection, schedule: Q01DX001 (ip), vehicle: other) 98 % of control; (dose: 200.0 mg/kg/injection, schedule: Q01DX001 (ip), vehicle: other) 98 % of control; (dose: 400.0 mg/kg/injection, schedule: Q01DX001 (ip), vehicle: other) 93 % of control.
Consider `C(=N\c1ncn[nH]1)/Nc1ncn[nH]1`, for which the T/C is, setting by setting: (dose: 100.0 mg/kg/injection, schedule: Q04DX003 (ip), vehicle: saline) 94 % of control; (dose: 200.0 mg/kg/injection, schedule: Q04DX003 (ip), vehicle: saline) 96 % of control.
As for `OC1C#CCCCCC(O)C#CCCCC1` (stereo not given), the T/C runs as follows: (dose: 18.75 mg/kg/injection, schedule: Q01DX009 (ip), vehicle: saline) 97 % of control; (dose: 37.5 mg/kg/injection, schedule: Q01DX009 (ip), vehicle: saline) 95 % of control; (dose: 37.5 mg/kg/injection, schedule: Q04DX003 (ip), vehicle: acetone) 100 % of control; (dose: 75.0 mg/kg/injection, schedule: Q01DX009 (ip), vehicle: saline) 97 % of control; (dose: 75.0 mg/kg/injection, schedule: Q04DX003 (ip), vehicle: acetone) 97 % of control; (dose: 150.0 mg/kg/injection, schedule: Q04DX003 (ip), vehicle: acetone) 92 % of control.
As for `CCCCCCCCCCCCOP(OCCCCCCCCCCCC)OCCCCCCCCCCCC`, the T/C by setting is: under setting [10], 90 % of control; (dose: 200.0 mg/kg/injection, schedule: Q01DX009 (ip), vehicle: saline) 88 % of control; (dose: 400.0 mg/kg/injection, schedule: Q01DX009 (ip), vehicle: saline) 93 % of control.
With `CC(=O)c1ccc(OC(=O)Nc2ccccc2F)cc1`, the T/C (dose: 25.0 mg/kg/injection, schedule: Q01DX009 (ip), vehicle: saline with Tween-80) is 112 % of control; the T/C (dose: 50.0 mg/kg/injection, schedule: Q01DX009 (ip), vehicle: saline with Tween-80) is 111 % of control; the T/C (dose: 100.0 mg/kg/injection, schedule: Q01DX009 (ip), vehicle: saline with Tween-80) was 96 % of control and 110 % of control.
With `CC[C@@H]1C[C@@H]2CN3CCc4c([nH]c5ccc(OC)cc45)C(C(=O)OC)(C2)C13`, the T/C was 89 % of control under setting [9], 94 % of control under setting [1] and 89 % of control under setting [3].
As to `COC(=O)C1CC(O)CC(C(=O)OC)O1` (stereo not given), the T/C runs as follows: under setting [6], 109 % of control; under setting [7], 93 % of control.
Take `CCN(CC)CCC(C=NCC(CCN(CC)CC)(c1cccc2ccccc12)C(C)C)(c1cccc2ccccc12)C(C)C` (stereo not given): the T/C is, setting by setting: (dose: 1.5 mg/kg/injection, schedule: Q04DX002 (ip), vehicle: saline + alcohol) 108 % of control; (dose: 3.1 mg/kg/injection, schedule: Q04DX002 (ip), vehicle: saline + alcohol) 102 % of control; (dose: 6.25 mg/kg/injection, schedule: Q04DX002 (ip), vehicle: saline + alcohol) 94 % of control; (dose: 12.5 mg/kg/injection, schedule: Q04DX002 (ip), vehicle: saline + alcohol) 92 % of control; (dose: 25.0 mg/kg/injection, schedule: Q04DX002 (ip), vehicle: saline + alcohol) 92 % of control; under setting [11], 92 % of control.
As to `C=C1CC(c2ccccc2)(c2cccs2)OC1=O` (stereo not given), the T/C is, setting by setting: under setting [2], 98 % of control; under setting [4], 96 % of control.
Turning to `CC(=O)Oc1c(F)c(F)c(F)c(F)c1F`, the T/C reads like this: under setting [11], 87 % of control; (dose: 50.0 mg/kg/injection, schedule: Q04DX002 (ip), vehicle: saline with Tween-80) 90 % of control; (dose: 100.0 mg/kg/injection, schedule: Q04DX002 (ip), vehicle: saline with Tween-80) 93 % of control.
Take `NCCCCC(=O)NC(CCCCNC(=O)OCc1ccccc1)C(=O)O` (stereo not given): the T/C is 102 % of control (dose: 100.0 mg/kg/injection, schedule: Q01DX001 (ip), vehicle: saline); 107 % of control (dose: 200.0 mg/kg/injection, schedule: Q01DX001 (ip), vehicle: saline); 105 % of control (dose: 400.0 mg/kg/injection, schedule: Q01DX001 (ip), vehicle: saline).
As to `CCCCCCCCCCCCNC=O`, the T/C under setting [10] was 94 % of control.
